We go through 27 compounds from patent US20070197590A1, “SUBSTITUTED DIPIPERIDINE CCR2 ANTAGONISTS” (priority 2006, published 2007).

For one assay, the target named is T1, CCR2 (Homo sapiens, UniProt P41597).
T1 construct: host or cells: THP-1 cells
T1 sequence (P41597 1-360 isoform P41597-2): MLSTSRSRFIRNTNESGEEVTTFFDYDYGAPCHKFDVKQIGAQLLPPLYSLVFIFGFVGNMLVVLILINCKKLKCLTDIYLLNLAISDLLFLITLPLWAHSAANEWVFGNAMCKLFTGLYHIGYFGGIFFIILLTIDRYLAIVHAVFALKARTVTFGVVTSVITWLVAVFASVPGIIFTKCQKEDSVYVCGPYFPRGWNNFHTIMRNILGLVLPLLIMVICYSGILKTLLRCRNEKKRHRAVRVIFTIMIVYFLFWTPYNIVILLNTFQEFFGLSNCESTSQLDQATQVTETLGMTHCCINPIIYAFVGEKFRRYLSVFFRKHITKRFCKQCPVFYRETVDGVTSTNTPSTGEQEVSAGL
As to the kind of experiment: MCP-1 Receptor Binding Assay in THP-1 Cells. The conditions noted are these: for IC50: THP-1 cells, 0.5 nM 125I labeled MCP-1, 2 hours at 30° C., read-out: Inhibition of MCP-1 Binding IC50; for inhibition at 25 µM: test concentration of 25 μM, given where an IC50 value was not obtained, read-out: Inhibition of MCP-1 Binding, percent inhibition. The method, then: THP-1 cells were obtained from American Type Culture Collection (Manassas, Va., USA). The THP-1 cells were grown in RPMI-1640 supplemented with 10% fetal bovine serum in a humidified 5% CO2 atmosphere at 37° C. The cell density was maintained […].
THP-1 cells were incubated with 0.5 nM ^125, labeled MCP-1 (Perkin-Elmer Life Sciences, Inc. Boston, Mass.) in the presence of varying concentrations of either unlabeled MCP-1 (R & D Systems, Minneapolis, Minn.) or test compound for 2 hours at 30° C. in a 96 well plate. Cells were then harvested onto a filter plate, dried, and 20 μL of Microscint 20 was added to each well. Plates were counted in a TopCount NXT, Microplate Scintillation & Luminescence Counter (Perkin-Elmer Life Sciences, Inc. Boston, Mass.). Blank values (buffer only) were subtracted from all values and drug treated values were compared to vehicle treated values. 1 μM cold MCP-1 was used for nonspecific binding.
Table 1 lists IC50 values for inhibition of MCP-1 binding to CCR2 obtained for test compounds of the invention.

Assay [1] concerns MCP-1 induced calcium ion influx in THP-1 cells. As to the kind of experiment: MCP-1 Induced Calcium Mobilization in THP-1 Cells. Type of assay: cell-based. Conditions: 0.2 μM MCP-1, FLIPR, read-out: Inhibition of MCP-1 Induced Calcium Ion Influx IC50. The method, then:
THP-1 cells were plated at a density of 8×10^5 cells/mL (100 μL/well) into poly-D lysine coated clear bottom, black 96 well plates. The cells were loaded with 5 μM fluo-3 for 45 minutes. The fluo-3 washed off and cells were incubated with varying concentrations of test compound for 15 minutes. The change in calcium ion concentration upon addition of 0.2 μM MCP-1 was determined using FLIPR and compared to vehicle.
Table 2 lists IC50 values for inhibition of MCP-1 induced influx of calcium ions.

Where [2] appears, read: Homo sapiens, THP-1, THP-1 cells.

Read-outs that look alike come from different tables or passages of the source.

With “4-hydroxy-4-{1-hydroxy-2-hydroxy-2-[4-(1H-indol-3-yl)-piperidin-1-yl]-ethyl}-piperidine-1-carboxylic acid (3,5-difluoro-phenyl)-amide [Compound 81]”, the 50% inhibitory concentration (IC50) on CCR2 came out at 2.6 µM; in assay [1] (THP-1 cells), 1.8 µM.

On to `COc1ccc(C2CCN(CC(CO)C3CCN(C(=O)/C=C/c4cccc(C)c4)CC3)CC2)cc1` (centres unmarked) [Compound 42], for which the IC50 worked out at 2.2 µM on CCR2 and 3.7 µM in assay [1] (setting [2]).

As to `COc1ccc(C2CCN(CC(O)C3CCN(C(=S)Nc4cccc(OC)c4)CC3)CC2)cc1` (centres unmarked) [Compound 96, 4-{1-hydroxy-2-[4-(4-methoxy-phenyl)-piperidin-1-yl]-ethyl}-piperidine-1-carbothioic acid (3-methoxy-phenyl)-amide], the IC50 in assay [1] (THP-1 cells) was determined as 13.1 µM.

Regarding `COc1ccc(C2CCN(CC(O)C3CCN(C(=S)Nc4cccc(C(F)(F)F)c4)CC3)CC2)cc1` (centres unmarked) [Compound 97, 4-{1-hydroxy-2-[4-(4-methoxy-phenyl)-piperidin-1-yl]-ethyl}-piperidine-1-carbothioic acid (3-trifluoromethyl-phenyl)-amide], the IC50 in assay [1] (THP-1 cells) came to 12.9 µM.

Regarding `COc1ccc(C2CCN(CC(O)C3CCN(C(=S)Nc4ccc(Cl)c(Cl)c4)CC3)CC2)cc1` (centres unmarked) [Compound 98, 4-{1-hydroxy-2-[4-(4-methoxy-phenyl)-piperidin-1-yl]-ethyl}-piperidine-1-carbothioic acid (3,4-dichloro-phenyl)-amide], the IC50 in assay [1] (setting [2]) was determined as 0.8 µM.

On to `COc1ccc(C2CCN(CC(O)C3CCN(C(=S)Nc4ccc(Br)c(F)c4)CC3)CC2)cc1` (centres unmarked) [Compound 99, 4-{1-hydroxy-2-[4-(4-methoxy-phenyl)-piperidin-1-yl]-ethyl}-piperidine-1-carbothioic acid (4-bromo-3-fluoro-phenyl)-amide], for which the IC50 in assay [1] (setting [2]) is 3.5 µM.

For the compound `O=C(Nc1cc(F)cc(F)c1)N1CCC(O)(C(O)CN2CCC(c3ccc(F)cc3)CC2)CC1` (centres unmarked) [Compound 133, 4-{2-[4-(4-fluoro-phenyl)-piperidin-1-yl]-1-hydroxy-ethyl}-4-hydroxy-piperidine-1-carboxylic acid (3,5-difluoro-phenyl)-amide], at CCR2, the IC50 came out at 3 µM.

Take `COc1ccc(/C=C/C(=O)N2CCC(O)(C(O)CN3CCC(c4ccc(C(F)(F)F)cc4)CC3)CC2)cc1OC` (centres unmarked) [Compound 140]: the IC50 on CCR2 was found to be 15.4 µM.

On to `O=C(Nc1ccc(F)c(F)c1)N1CCC(O)(C(O)CN2CCC(c3ccc(C(F)(F)F)cc3)CC2)CC1` (centres unmarked) [Compound 141, 4-hydroxy-4-{1-hydroxy-2-[4-(4-trifluoromethyl-phenyl)-piperidin-1-yl]-ethyl}-piperidine-1-carboxylic acid (3,4-difluoro-phenyl)-amide], for which the IC50 at CCR2 came to 2.8 µM.

Regarding `O=C(Nc1ccc(Cl)c(Cl)c1)N1CCC(O)(C(O)CN2CCC(c3ccc(C(F)(F)F)cc3)CC2)CC1` (centres unmarked) [Compound 143, 4-hydroxy-4-{1-hydroxy-2-[4-(4-trifluoromethyl-phenyl)-piperidin-1-yl]-ethyl}-piperidine-1-carboxylic acid (3,4-dichloro-phenyl)-amide], at CCR2, the IC50 turned out to be 1 µM.

On to `OC(CN1CCC(c2ccc(C(F)(F)F)cc2)CC1)C1(O)CCN(C(=S)Nc2ccc(Cl)c(Cl)c2)CC1` (centres unmarked) [Compound 144, 4-hydroxy-4-{1-hydroxy-2-[4-(4-trifluoromethyl-phenyl)-piperidin-1-yl]-ethyl}-piperidine-1-carbothioic acid (3,4-dichloro-phenyl)-amide], for which the 50% inhibitory concentration (IC50) on CCR2 was found to be 3.4 µM.

In the case of `OC(CN1CCC(c2ccc(C(F)(F)F)cc2)CC1)C1(O)CCN(C(=S)Nc2cc(Cl)cc(Cl)c2)CC1` (centres unmarked) [Compound 145, 4-hydroxy-4-{1-hydroxy-2-[4-(4-trifluoromethyl-phenyl)-piperidin-1-yl]-ethyl}-piperidine-1-carbothioic acid (3,5-dichloro-phenyl)-amide], the IC50 on CCR2 is 1.9 µM.

Regarding `CC(C)(C)OC(=O)N1CCC(O)(C(O)CN2CCC(c3ccc(Cl)cc3)CC2)CC1` (centres unmarked) [Compound 146, 4-{2-[4-(4-chloro-phenyl)-piperidin-1-yl]-1-hydroxy-ethyl}-4-hydroxy-piperidine-1-carboxylic acid tert-butyl ester], the inhibition at 25 µM at CCR2 came out at 41%.

As for `Nc1ccc2[nH]cc(C3CCN(CC(O)C4CCN(C(=O)OCc5ccccc5)CC4)CC3)c2c1` (centres unmarked) [Compound 147, 4-{2-[4-(5-amino-1H-indol-3-yl)-piperidin-1-yl]-1-hydroxy-ethyl}-piperidine-1-carboxylic acid benzyl ester], the 50% inhibitory concentration (IC50) on CCR2 came to 3 µM.

Consider `O=C(/C=C/c1cc(F)c(F)c(F)c1)N1CCC(O)(C(O)CN2CCC(c3c[nH]c4ccc(N5CCOCC5)cc34)CC2)CC1` (centres unmarked) [Compound 148], for which, at CCR2, the half-maximal inhibitory concentration (IC50) was 1.1 µM.

Take `O=C(/C=C/c1cc(F)cc(F)c1)N1CCC(O)(C(O)CN2CCC(c3c[nH]c4ccc(N5CCOCC5)cc34)CC2)CC1` (centres unmarked) [Compound 149]: on CCR2, the IC50 amounted to 1.3 µM.

With `O=C(/C=C/c1cc(C(F)(F)F)cc(C(F)(F)F)c1)N1CCC(O)(C(O)CN2CCC(c3c[nH]c4ccc(N5CCOCC5)cc34)CC2)CC1` (centres unmarked) [Compound 150], the IC50 at CCR2 was determined as 8.7 µM.

Consider `O=C(/C=C/c1cc(F)cc(F)c1)N1CCC(O)(C(O)CN2CCC(O)(c3ccc(F)cc3)CC2)CC1` (centres unmarked) [Compound 154], for which, at CCR2, the IC50 was found to be 1.8 µM.

With `O=C(Nc1cc(F)ccc1Cl)N1CCC(O)(C(O)CN2CCC(c3c[nH]c4ccc(F)cc34)CC2)CC1` (centres unmarked) [Compound 161], on CCR2, the IC50 is 8.3 µM.

For `OC(CN1CCC(c2c[nH]c3ccc(F)cc23)CC1)C1(O)CCN(C(=S)Nc2ccc(Cl)c(Cl)c2)CC1` (centres unmarked) [Compound 162], the 50% inhibitory concentration (IC50) on CCR2 stood at 8.1 µM.

In the case of `OC(CN1CCC(c2ccc(Cl)cc2)CC1)C1(O)CCN(C(=S)Nc2cc(F)cc(F)c2F)CC1` (centres unmarked) [Compound 166, 4-{2-[4-(4-chloro-phenyl)-piperidin-1-yl]-1-hydroxy-ethyl}-4-hydroxy-piperidine-1-carbothioic acid (2,3,5-trifluoro-phenyl)-amide], the half-maximal inhibitory concentration (IC50) at CCR2 was 3.1 µM.

Regarding `O=C(CCc1ccc(Cl)c(Cl)c1)N1CCC(O)(C(O)CN2CCC(c3c[nH]c4ccc(F)cc34)CC2)CC1` (centres unmarked) [Compound 168, 3-(3,4-dichloro-phenyl)-1-(4-{2-[4-(5-fluoro-1H-indol-3-yl)-piperidin-1-yl]-1-hydroxy-ethyl}-4-hydroxy-piperidin-1-yl)-propan-1-one], the half-maximal inhibitory concentration (IC50) at CCR2 stood at 2.7 µM.

As to `O=C(Cc1cccc([N+](=O)[O-])c1)N1CCC(O)(C(O)CN2CCC(c3c[nH]c4ccc(N5CCOCC5)cc34)CC2)CC1` (centres unmarked) [Compound 176, 1-(4-hydroxy-4-{1-hydroxy-2-[4-(5-morpholin-4-yl-1H-indol-3-yl)-piperidin-1-yl]-ethyl}-piperidin-1-yl)-2-(3-nitro-phenyl)-ethanone], the inhibition at 25 µM at CCR2 was found to be 42%.

On to `O=C(Nc1ccc(F)c(F)c1)N1CCC(O)(C(O)CN2CCC(c3c[nH]c4ccc(N5CCOCC5)cc34)CC2)CC1` (centres unmarked) [Compound 179, 4-hydroxy-4-{1-hydroxy-2-[4-(5-morpholin-4 yl-1H-indol-3-yl)-piperidin-1-yl]-ethyl}-piperidine-1-carboxylic acid (3,4-difluoro-phenyl)-amide], for which the half-maximal inhibitory concentration (IC50) on CCR2 worked out at 5.8 µM.

With `O=C(Nc1cc(F)cc(C(F)(F)F)c1)N1CCC(O)(C(O)CN2CCC(c3c[nH]c4ccc(N5CCOCC5)cc34)CC2)CC1` (centres unmarked) [Compound 180, 4-hydroxy-4-{1-hydroxy-2-[4-(5-morpholin-4-yl-1H-indol-3-yl)-piperidin-1-yl]-ethyl}-piperidine-1-carboxylic acid (3-fluoro-5-trifluoromethyl-phenyl)-amide], at CCR2, the half-inhibitory concentration (IC50) turned out to be 4.2 µM.

As for `OC(CN1CCC(c2c[nH]c3ccc(N4CCOCC4)cc23)CC1)C1(O)CCN(C(=S)Nc2cc(F)cc(F)c2)CC1` (centres unmarked) [Compound 183, 4-hydroxy-4-{1-hydroxy-2-[4-(5-morpholin-4-yl-1H-indol-3-yl)-piperidin-1-yl]-ethyl}-piperidine-1-carbothioic acid (3,5-difluoro-phenyl)-amide], the inhibition at 25 µM on CCR2 turned out to be 47%.

For `CC(=O)Nc1ccc2[nH]cc(C3CCN(CC(O)C4CCNCC4)CC3)c2c1` (centres unmarked) [Compound 185, N-{3-[1-(2-hydroxy-2-piperidin-4-yl-ethyl)-piperidin-4-yl]-1H-indol-5-yl}-acetamide], the inhibition at 25 µM on CCR2 is 54%.
